# Data reported in US20160089464A1, “MALODOR REDUCTION COMPOSITIONS” (The Procter & Gamble Company, priority 2014, published 2016).
# Test: Comment Code material properties: vapor pressure, ClogP, probability of ingredient color instability, odor detection threshold, melamine formaldehyde PMC headspace response ratio and leakage, liquid dish neat product liquid-air partition coefficient
# Assay type: physicochemical
# Settings: Table 1 materials; each letter of the code is one property class (vapor pressure, ClogP, color instability, odor detection threshold, PMC headspace ratio, PMC leakage, liquid dish liquid-air partition coefficient)
row,SMILES,Comment Code
1,C=C[C@](C)(O)CC[C@@H]1[C@@]2(C)CCCC(C)(C)[C@@H]2CC[C@@]1(C)O [Material 1028],DEFHJ
2,O=C(/C=C/c1ccccc1)OCc1ccccc1 [Material 650],DHJ
3,C=CCCCCCCCCC=O [Material 871],ADHJK
4,CC(C)=CCCC(C)=C1CC=C(C)CC1 [Material 608],DEFHJK
5,C=CC=CC=CCCCCC [Material 876],ADEFHJKL
6,CCCCCCCCC=CC#N [Material 827],BDEFHJK
7,CC(C)=CCCC(C)(O)C1CC=C(C)CC1 (centres unmarked) [Material 718],DFHJK
8,C=C1CCC2C(C3C(C)CCC13)C2(C)C (centres unmarked) [Material 750],BDEFHJKL
9,CC(C)[C@@]12CC(=O)[C@H](C)[C@@H]1C2 [Material 683],ADEFGIJKL
10,CC1C[C@H]2C3CCC(C3)[C@H]2CC1=O (some centres unmarked) [Material 980],CEFGJKL
11,CC1CCC2C(C2(C)C)C12COC(C)(C)OC2 (centres unmarked) [Material 1036],BCEFHJK
12,CCC=CCCOC(=O)CC(C)C [Material 814],ADEFHJKL
13,C=CCCC(=O)C1=CCCC(C)(C)C1 [Material 697],BDHJK
14,CCCOC(C)OCCc1ccccc1 (centres unmarked) [Material 766],CEFHJK
15,C=C(C)C1CCC(C)C2=C(C1)C(C)CC2 (centres unmarked) [Material 709],DEFHJKL
16,C=C(C)C1CCC2(C)CCCC(=C)C2C1 (centres unmarked) [Material 615],BDEFGJK
17,CCC(=O)OC1CC2CC1C1CC=CC21 (centres unmarked) [Material 919],CEFHJK
18,CC1=CC(=O)CC(C)C12CCC(=C(C)C)C2 (centres unmarked) [Material 610],DHJK
19,CC1C(C)(C)C2CCC3CC(C)(C)OC3C2C1(C)C (centres unmarked) [Material 680],ADEFHJK
20,CCCCCCCCCC(=O)O [Material 582],DEFHJK
21,C=C1C(O)CC2(C(C)C)CC12 (centres unmarked) [Material 1020],BCEFHIJKL
22,O=CC(=Cc1ccco1)c1ccccc1 [Material 833],CHJ
23,CC1=CCC(C23CCCC(C)(C2)OC3)C1(C)C (centres unmarked) [Material 571],DFHJ
24,C=C(C)C1CCC(C)(O)CC1 (centres unmarked) [Material 612],BCGIJK
25,CCCCCCCCCCC=O [Material 1102],BDHJK

row,SMILES,Comment Code
1,COc1cc(OC)c(C=O)c(OC)c1 [Material 736],BCGI
2,CCCCCCCCCCCCCO [Material 1090],DEFGJK
3,CC1=CC2C(CC1)C(C)=CCC2C(C)C (centres unmarked) [Material 698],DEFHJKL
4,CCC(=O)OC(C)(C)C1CC=C(C)CC1 (centres unmarked) [Material 686],BDEFHJK
5,CC1=CCC2(C)CCCC(C)(C)C23CC13 (centres unmarked) [Material 1060],BDEFGJKL
6,C=C(C)C1CCC2(C)CCC=C(C)C2C1 (centres unmarked) [Material 692],BDEFHJK
7,CCC(C)(O)CCc1ccccc1 (centres unmarked) [Material 731],CEFHJK
8,C=C1C2CCC(C2)C1(C)CCC=C(C)CO (centres unmarked) [Material 616],DEFHJK
9,CC(=O)OC1C2(C)CCC(C2)C1(C)C (centres unmarked) [Material 878],ADEFHIJKL
10,CC(C)(O)Cc1ccccc1 [Material 649],BCEFGIK
11,CC12CCCC(O)(C1)C1CC(C)(C)C1CC2 (centres unmarked) [Material 574],DEFHJK
12,CC1=CCCC2(C)OC2CCC(C)=CCC1 (centres unmarked) [Material 568],DFHJK
13,CCCCCCCCCCC=CC=O [Material 930],BDFHJK
14,C=CCCCCCCCC=O [Material 770],ADHKL
15,CC1(C)C2CC=C(CCC=O)C1C2 (centres unmarked) [Material 781],BCFHJK
16,c1ccc(CCOC2CCCCC2)cc1 [Material 953],DEFHJK
17,C=C(C)C1CCC(C)(OC(C)=O)CC1 (centres unmarked) [Material 611],BDHJK
18,CC1=CC2C(=C(C)CCCC2(C)C)CC1 (centres unmarked) [Material 625],DEFHJKL
19,CC(C)=C1CCC(C)C2=C(C1)C(C)CC2 (centres unmarked) [Material 626],DEFHJKL
20,CC1CC=CCCCCCCCC(=O)OCC1 (centres unmarked) [Material 1099],DEFHJK
21,CCC(C)C(=O)OCCc1ccccc1 (centres unmarked) [Material 954],DEFHJK
22,CCCCCCCCO [Material 580],ACEFGIKL
23,CC(C)=CCC=C(C)C1CC=C(C)CC1 (centres unmarked) [Material 719],DEFHJK
24,C=CC1(C)CCC(C(=C)C)O1 (centres unmarked) [Material 786],ACGIJKL
25,CC(C)C1=CCC(C)(O)CC1 (centres unmarked) [Material 982],BCGIJK

# Same assay, conditions: cell strings several class symbols together; each letter is one property class of L1
row,SMILES,Comment Code
1,C=C[C@](C)(O)CC[C@@H]1[C@@]2(C)CCCC(C)(C)[C@@H]2CC[C@@]1(C)O [Material 1028],DEFHJ
2,Cc1n[nH]cc1-c1ccccc1 [Material 808],CEFHK
3,CC(C)=CCCC(C)CC=O (centres unmarked) [Material 891],ACHIJKL
4,CC(C)c1ccc(CC=O)cc1 [Material 977],BDFHK
5,CC12CCC(CC1)C(C)(C)O2 [Material 376],ADEFGIJKL
6,CC=Cc1ccc(OCc2ccccc2)c(OC)c1 [Material 212],DFHJ
7,CC1C2CC(CC2C2CCC(O)CC2)C1(C)C (centres unmarked) [Material 230],DEFHJK
8,CCC(C)C(=O)OC(C)C (centres unmarked) [Material 198],ACEFGIJKL
9,CCCc1ccc(OC)cc1 [Material 987],ADEFHKL
10,CC(C)C(=O)OCc1ccccc1 [Material 647],BCHJK
11,C=C1CCC2C(C3C(C)CCC13)C2(C)C (centres unmarked) [Material 750],BDEFHJKL
12,COc1c2ccoc2c(OC)c2oc(=O)ccc12 [Material 199],CFGJ
13,CC(=O)CCc1ccc(O)cc1 [Material 1002],CEFGIK
14,CC(=O)[C@@]1(C)CC2=C(CCCC2(C)C)C[C@@H]1C [Material 215],DHJK
15,CC(=O)OC(c1ccccc1)C(Cl)(Cl)Cl (centres unmarked) [Material 1088],BDEFGJ
16,CC(=O)OC(C)C1CCCC(C)(C)C1 (centres unmarked) [Material 1011],ADHIJKL
17,C/C=C\C(=O)/C(C)=C(/C)C(C)C [Material 986],ADHIJKL
18,CC1=CC[C@@H]2C[C@H]1C2(C)C [Material 901],ADEFGIJKL
19,CCC(=O)OC1CC2CC1C1CC=CC21 (centres unmarked) [Material 919],CEFHJK
20,COc1ccc(COC(C)=O)cc1 [Material 664],BCEFGK
21,CC1C(C)(C)C2CCC3CC(C)(C)OC3C2C1(C)C (centres unmarked) [Material 680],ADEFHJK
22,CC(C)C=CCO [Material 194],ACGIKL
23,CC(C)=CCCC(C)=CC#N [Material 302],BCEFHKL
24,CCCCCCCC(=O)OCC [Material 387],BDEFHJKL
25,CC(C)=CCCC(C)CCO (centres unmarked) [Material 900],BCHIJKL

row,SMILES,Comment Code
1,CCC(C)(CCCC(C)C)OC(C)=O (centres unmarked) [Material 1055],ADEFHJKL
2,C=C(C)CCC[C@H](C)CCO [Material 1004],BCHIJKL
3,CC1=CCC2(C)CCCC(C)(C)C23CC13 (centres unmarked) [Material 1060],BDEFGJKL
4,CC=Cc1ccc(OCC)c(O)c1 [Material 1112],CEFHK
5,CC/C=C\CCO [Material 542],ACEFHIKL
6,CCC(=O)OC(C)c1ccccc1 (centres unmarked) [Material 96],BCHJK
7,C=CC(C)(CCC=C(C)C)OC(=O)CCC (centres unmarked) [Material 151],BDEFHJK
8,COc1cc(C)cc(O)c1 [Material 811],BCHIK
9,CCC/C=C\CCOC(C)=O [Material 882],ACEFHKL
10,C=C1C2CCC(C2)C1(C)CCC=C(C)CO (centres unmarked) [Material 616],DEFHJK
11,CC(C)(C)[C@@H]1CCCC[C@H]1O [Material 1071],ACGIJKL
12,CC12CCCC(O)(C1)C1CC(C)(C)C1CC2 (centres unmarked) [Material 574],DEFHJK
13,CC1CCOC(c2ccccc2)C1 (centres unmarked) [Material 420],BDEFHJK
14,COc1ccc(COC=O)cc1 [Material 665],BCEFGK
15,CCC(C)C(=O)OC (centres unmarked) [Material 904],ACEFGIKL
16,CCC(C)(O)/C=C/C=C(C)C (centres unmarked) [Material 81],BCEFGIJK
17,Cc1ccnc2ccccc12 [Material 166],BCEFHIKL
18,CC(C)(O)CCC1CCCCC1 [Material 496],BDEFGIJK
19,CCOC(=O)C=Cc1ccccc1 [Material 400],BCEFHK
20,CC1(C)CCc2ccc(CCC=O)cc21 [Material 260],DHJK
21,CC(C)=CCC/C(C)=C\COC=O [Material 59],BCEFHJK
22,C/C=C(\C)C(=O)OCC/C=C\CC [Material 536],BDEFHJK
23,CC1=CCC2CC1C2(C)C (centres unmarked) [Material 1001],ADEFGIJKL
24,CC(C)(C)c1ccc(CC=O)cc1 [Material 994],BDHJK

# Same assay, conditions: letter codes A-L: vapor pressure, ClogP, probability of ingredient color instability, odor detection threshold, PMC headspace response ratio, PMC leakage, liquid dish liquid-air partition coefficient; Table 1 materials with at least one MORV from 1 to 5
row,SMILES,Comment Code
1,COCc1ccc(O)c(OC)c1 [Material 1113],CGIK
2,CC1CC(C)(c2ccccc2)OC(C)O1 (centres unmarked) [Material 1126],BCFHJK
